Key:
[1] = tested on: confluent Caco-2 cell layers; experiment: Transport of nutrients and bisphosphonates through confluent Caco-2 cell layers in two-compartment transport system, in presence of sphingolipid; format: in vitro ADME, human; conditions: for Transport velocity of testosterone / Velocity measured/Control velocity, testosterone: nutrient testosterone 10 μM
Method: GlySar, mannitol, testosterone, caffeine and cholesterol were tested at a concentration of 10 μM. This concentration was reached by mixing “cold” and radioactively labeled test substrate (mannitol, testosterone and cholesterol) or by testing the radioactively labeled substrate alone (GlySar and caffeine).
In general, the experiments were carried out in the presence and in the absence of 0.03 wt. % of bile. If bile was used in an experiment, this is explicitly stated in the results.
For the present transport studies, Caco-2 cells (passage 34) were seeded on semi-permeable filter inserts (12-well Transwell™ plates, 0.4 μm pores, Corning Costar) at 100,000 cells.per filter (growth surface 1.13 cm^2 containing 2.5 ml of culture medium). The number of cells was counted using a Bürker-Türk count chamber. The cells on the inserts were grown for 21 days at 37° C. in a humidified incubator in an atmosphere of air containing 5% of CO2. During such a culture period, the cells undergo an enterocyte-like differentiation.
Three filter inserts were used per experimental group.
The radioactivity in all samples was determined as DPM (disintegrations per minute), using an LKB/Wallac S1409 scintillation counter. The amount of radioactivity was determined in the 100-μl samples of the dose compartments and in the 500-μl samples of the receptor compartments.
In the experiments whose results are shown in Table 1, phytosphingosine was added as 0.02 wt. % (0.6 μM), ceramide III as 0.02 wt. % (0.3 μM), lysosphingomyelin as 0.008 wt. % (0.2 μM), sphinganine as 0.02 wt. % (0.6 μM) sphingosine as 0.02 wt. % (0.6 μM), egg sphingomyelin as 0.02 wt. % (0.3 μM) and glucosylceramide III as 0.02 wt. % (0.3 μM).

Caco-2 cell layers = experiment: Transport of the lipids themselves from apical to basolateral side of Caco-2 cell layer; conditions: 19 μg/ml lysosphingomyelin or 16.6 μg/ml phytosphingosine added to apical compartment
Method: The effect on transport and the transport of lipids was tested with 0.02 wt. % in transport medium (except for lysosphingomyelin and cerebroside, of which 0.008 wt. % and 0.01 wt. %, respectively, were used). Stock solutions of the test compounds were prepared in ethanol. The stock solutions were diluted in transport medium to a final concentration of 2% (v/v) ethanol in transport medium.
The culture medium was removed from the filter inserts (apical compartment) and from under the filter inserts (basolateral compartment). The inserts were washed using phosphate-buffered saline (PBS) and were moved to a new 12-well plate, whose wells had been filled with 1.8 ml of transport medium (DMEM without phenol red, non-essential amino acids (1% v/v), L-glutamine (2 mM) and gentamicin (50 μg/ml)). The transport study was started by filling the apical chamber with 600 μl of the dosed solution. A sample of 100 μl from the apical compartment was collected directly after administration of the dosage. The 12-well plate with the filter inserts was incubated on a rotating platform (60 rpm) in a humidified incubator at 37° C. under an atmosphere of 5% of CO2 in air. Samples (500 μl) from the basolateral compartment were collected at 15, 30, 60 and 120 min after the start of the transport study. […]

[2] = bisphosphonate EB1053 10 μM, no bile, lysosphingomyelin 0.008 wt. %
[3] = bisphosphonate EB1053 at 10× conc., no bile, lysosphingomyelin 0.008 wt. %
[4] = bisphosphonate d-ADP 10 μM, no bile, lysosphingomyelin 0.008 wt. %
[5] = bisphosphonate d-ADP at 10× conc., no bile, lysosphingomyelin 0.008 wt. %
[6] = nutrient GlySar 10 μM, additive 0.03% bile, lysosphingomyelin 0.008 wt. %
[7] = nutrient caffeine 10 μM, additive 0.03% bile, lysosphingomyelin 0.008 wt. %
[8] = nutrient cholesterol 10 μM, additive 0.03% bile, test lipid 0.02 wt. % (lysosphingomyelin 0.008 wt. %)
[9] = nutrient mannitol 10 μM, additive 0.03% bile, lysosphingomyelin 0.008 wt. %
[10] = additive 0.03% bile, lysosphingomyelin 0.008 wt. %
[11] = no bile, test lipid 0.02 wt. % (lysosphingomyelin 0.008 wt. %)

Method for Caco-2 cell monolayers: After 21 days of cell culture, the transepithelial electrical resistance (TEER) of the monolayers was used to check on the growth and differentiation of the Caco-2 cells on the filters (Duizer et al., J. Contr. Release 49: 39-49, 1997). The TEER is a measure for the differentiation status of the monolayer and was measured by means of the Millicell-ERS epithelial volt ohm meter (Millipore Co., Bedford, USA). Only monolayers having a TEER higher than 500 Ω.cm^−2 were used in the transport experiments.
Three filter inserts were used per experimental group. The integrity of all monolayers of Caco-2 cells used in this study was determined by measuring the transepithelial electrical resistance (TEER).

For CCCCCCCCCCCCC/C=C/[C@@H](O)[C@@H](N)COP(=O)([O-])OCC[N+](C)(C)C [lysosphingomyelin, sphingosyl-phosphorylcholine], the “Resistance between the apical and basolateral liquids” value (Caco-2 cell monolayers) was “decrease”, the “Transport velocity of EB1053” value [1, 2] was 371 ± 17 cm · hour^−1 × 10^−7 and the “Velocity measured/Control velocity, EB1053” value [1, 2] was 12.2. For the same compound, the “Transport velocity of EB1053 (10× conc.)” value [1, 3] was 414 ± 13 cm · hour^−1 × 10^−7, the “Velocity measured/Control velocity, EB1053 (10× conc.)” value [1, 3] was 12.1 and the “Transport velocity of d-ADP” value [1, 4] was 922 ± 10 cm · hour^−1 × 10^−7. For the same compound, the “Velocity measured/Control velocity, d-ADP” value [1, 4] was 4.9, the “Transport velocity of d-ADP (10× conc.)” value [1, 5] was 498 ± 8 cm · hour^−1 × 10^−7 and the “Velocity measured/Control velocity, d-ADP (10× conc.)” value [1, 5] was 6.1. The “Increase of EB-1053 transport (times faster)” value ([1]; in presence of 0.008% (w/v) lysosphingomyelin) was 12 times, the “Transport velocity of GlySar” value [1, 6] was 35.4 ± 2.4 cm · hour^−1 × 10^−7 and the “Velocity measured/Control velocity, GlySar” value [1, 6] was 1. For the same compound, the “Transport velocity of GlySar” value ([1]; nutrient GlySar 10 μM, no bile, test lipid 0.02 wt. % (lysosphingomyelin 0.008 wt. %)) was 79.7 ± 28.1 cm · hour^−1 × 10^−7, the “Transport velocity of caffeine” value [1, 7] was 560 ± 29 cm · hour^−1 × 10^−7 and the “Velocity measured/Control velocity, caffeine” value [1, 7] was 1. The “Transport velocity of caffeine” value ([1]; nutrient caffeine 10 μM, no bile, test lipid 0.02 wt. % (lysosphingomyelin 0.008 wt. %)) was 559 ± 38 cm · hour^−1 × 10^−7, the “Transport velocity of cholesterol” value [1, 8] was 1.25 (n = 1) cm · hour^−1 × 10^−7 and the “Velocity measured/Control velocity, cholesterol” value [1, 8] was 1. For the same compound, the “Transport velocity of mannitol” value [1, 9] was 12.3 ± 1.8 cm · hour^−1 × 10^−7, the “Velocity measured/Control velocity, mannitol” value [1, 9] was 1 and the “Transport velocity of mannitol” value ([1]; nutrient mannitol 10 μM, no bile, test lipid 0.02 wt. % (lysosphingomyelin 0.008 wt. %)) was 120 ± 9 cm · hour^−1 × 10^−7. For the same compound, the “Transport velocity of testosterone” value [1, 10] was 576 ± 24 cm · hour^−1 × 10^−7, the “Velocity measured/Control velocity, testosterone” value [1, 10] was 1 and the “Transport velocity of testosterone” value [1, 11] was 536 ± 21 cm · hour^−1 × 10^−7. For the same compound, the “Velocity measured/Control velocity, testosterone” value [1, 11] was 1.

For CCCCCCCCCCCCCC[C@@H](O)[C@@H](O)[C@@H](N)CO [phytosphingosine], the “Lipid still demonstrated in the apical liquid after 120 minutes” value (Caco-2 cell layers) was 12.9 µg/mL and the “Lipid in the basolateral liquids (apical to basolateral transport of lipid)” value (Caco-2 cell layers; 120 minutes) was “no lipids could be demonstrated”.

Source: patent US20060128666A1, “Use of sphingomyelin and lyso-sphingomyelin as absorption enhancers” (priority 2003, published 2006)
